According to US12428422B2, “Purine derivatives as SIK-3 inhibitors” (RHIZEN PHARMACEUTICALS AG, priority 2020, dated 2025):

Columns and labels:
SK-OV-3 cell lines = assay: MTT cell growth inhibition, combination with taxol, SK-OV-3; assay type: cell-based; details: combined with taxol, 72 hrs
Experimental: (§1) Assay 6: Combination of Compound M1 with Standard Agents in Different Cell Lines
(§2) Day 0 • The cells were pelleted and counted. • Cells were plated at desired density (100 μl/well) in complete media in a 96-well plate in triplicates. A column for Day “0” reading was also seeded. (18-20 hrs after initial plating and before addition of the inhibitors) • Plates were incubated at 37° C. and 5% CO2. Day 1 • 10 μl of MTT (5 mg/ml) were added to the column designated for Day “0”. It was mixed well and incubated at 37° C. and 5% CO2 for 3.5 h. Cells were pelleted down at 4000 rpm for 10 minutes. • Media was aspirated out and 150 μl of DMSO were added to the cells and mixed by pipetting to dissolve the crystals • The plate was read at A560 nm and A640 nm. Day 2 • A series of dilutions of the inhibitors were initially made in 100% DMSO and further diluted in growth medium. • Cells were treated with either single agent of DMSO, compound M1, taxol, and a combination of compound M1 and taxol (MDA-MB-231, MCF-7, ZR.75.1 and SK-OV-3). […] Crystals were dissolved by repeated pipetting. • The plate was read at A560 nm and A640 nm. […]
(§3) Reference absorbance values were subtracted from test absorbance values. Day 0 values were subtracted from final day absorbance values for determining cell growth. % Cell growth inhibitions were calculated.

SIK3 (human) = SIK3 (human) (Homo sapiens, UniProt Q9Y2K2); assay: Enzymatic radiometric assay against human salt-inducible kinase-3 (SIK3); assay type: biochemical
Experimental: Assay 1: Determination of IC50 of Compound M1 Against Human Salt-Inducible Kinase-3 (SIK3) Using an Enzymatic Radiometric Assay
• SIK3 (human) was incubated with 8 mM MOPS pH 7.0, 0.2 mM EDTA, 100 uM of the peptide […] (Substrate), 10 mM Mg Acetate and [gamma-33P-ATP] (specific activity and concentration as required) in the presence of Compound M1. • The reaction was initiated by the addition of the Mg/ATP mix. • After incubation for 40 minutes at room temperature, the reaction was stopped by the addition of phosphoric acid to a concentration of 0.5%. • 10 μL of the reaction mixture was then spotted onto a P30 filtermat and washed four times for 4 minutes in 0.425% phosphoric acid and once in methanol prior to drying and scintillation counting. • The IC50 value was calculated using GraphPad Prism.

HuT-78 cell lines = assay: MTT cell growth inhibition, combination with romidepsin, HuT-78; assay type: cell-based; details: combined with romedepsin, 72 hrs
Experimental: Assay 5: Combination of Compound M1 with Standard Agents in HuT-78 Cell Lines
Day 0 • The HuT-78 cells were pelleted and counted. • Cells were plated at desired density (100 μl/well) in complete media in a 96-well plate in triplicates. A column for Day “0” reading was also seeded. (18-20 hrs after initial plating and before addition of the inhibitors) • Plates were incubated at 37° C. and 5% CO2. Day 1 • 10 μl of MTT (5 mg/ml) were added to the column designated for Day “0”. It was mixed well and incubated at 37° C. and 5% CO2 for 3.5 hours. Cells were pelleted down at 4000 rpm for 10 minutes. • Media was aspirated out and 150 μl of DMSO were added to the cells and mixed by pipetting to dissolve the crystals • The plate was read at A560 nm and A640 nm. Day 2 • A series of dilutions of the inhibitors were initially made in 100% DMSO and further diluted in growth medium. • Cells were treated with either single agent of DMSO, compound M1, romidepsin, or a combination of compound M1 and romidepsin (HuT-78). […] Crystals were dissolved by repeated pipetting. • The plate was read at A560 nm and A640 nm. […]
as §3

y isoform of PI3K = y isoform of PI3K (Homo sapiens, UniProt P48736); assay: Activity against PI3K gamma isoform (printed "y" / "7"); details: independently synthesized compound
U937 cell lines = assay: MTT cell growth inhibition, single agent or combination, U937; assay type: cell-based; details: combined with azacytidine or ventoclax, 72 hrs
Experimental: (§4) Assay 4: Compound M1 as a Single Agent or in Combination with Azacytidine, or Venetoclax was Determined in the AML Lines: THP-1, U937, and MV-4-11.
(§5) Day 0 • The cells were pelleted and counted. • Cells were plated at desired density (100 μl/well) in complete media in a 96-well plate in triplicates. A column for Day “0” reading was also seeded (18-20 hrs after initial plating and before addition of the inhibitors) • Plates were incubated at 37° C. and 5% CO2. Day 1 • 10 μl of MTT (5 mg/ml) were added to the column designated for Day “0”. It was mixed well and incubated at 37° C. and 5% CO2 for 3.5 h. Cells were pelleted down at 4000 rpm for 10 minutes. • Media was aspirated out and 150 μl of DMSO were added to the cells and mixed by pipetting to dissolve the crystals • Plate was read at A560 nm and A640 nm. […] Crystals were dissolved by repeated pipetting. • The plate was read at A560 nm and A640 nm. […]
(§6) Reference absorbance values were subtracted from test absorbance values. Day 0 values were subtracted from final day absorbance values for determining cell growth. Percent cell growth inhibitions were calculated.

THP-1 cell lines = assay: MTT cell growth inhibition, single agent or combination, THP-1; assay type: cell-based; details: combined with azacytidine or ventoclax, 72 hrs
Experimental: as §4, §5, §6

ZR.75.1 cell lines = assay: MTT cell growth inhibition, combination with taxol, ZR.75.1; assay type: cell-based; details: combined with taxol, 72 hrs
Experimental: as §1, §2, §3

Sequence of SIK3 (human) (Q9Y2K2 whole entry): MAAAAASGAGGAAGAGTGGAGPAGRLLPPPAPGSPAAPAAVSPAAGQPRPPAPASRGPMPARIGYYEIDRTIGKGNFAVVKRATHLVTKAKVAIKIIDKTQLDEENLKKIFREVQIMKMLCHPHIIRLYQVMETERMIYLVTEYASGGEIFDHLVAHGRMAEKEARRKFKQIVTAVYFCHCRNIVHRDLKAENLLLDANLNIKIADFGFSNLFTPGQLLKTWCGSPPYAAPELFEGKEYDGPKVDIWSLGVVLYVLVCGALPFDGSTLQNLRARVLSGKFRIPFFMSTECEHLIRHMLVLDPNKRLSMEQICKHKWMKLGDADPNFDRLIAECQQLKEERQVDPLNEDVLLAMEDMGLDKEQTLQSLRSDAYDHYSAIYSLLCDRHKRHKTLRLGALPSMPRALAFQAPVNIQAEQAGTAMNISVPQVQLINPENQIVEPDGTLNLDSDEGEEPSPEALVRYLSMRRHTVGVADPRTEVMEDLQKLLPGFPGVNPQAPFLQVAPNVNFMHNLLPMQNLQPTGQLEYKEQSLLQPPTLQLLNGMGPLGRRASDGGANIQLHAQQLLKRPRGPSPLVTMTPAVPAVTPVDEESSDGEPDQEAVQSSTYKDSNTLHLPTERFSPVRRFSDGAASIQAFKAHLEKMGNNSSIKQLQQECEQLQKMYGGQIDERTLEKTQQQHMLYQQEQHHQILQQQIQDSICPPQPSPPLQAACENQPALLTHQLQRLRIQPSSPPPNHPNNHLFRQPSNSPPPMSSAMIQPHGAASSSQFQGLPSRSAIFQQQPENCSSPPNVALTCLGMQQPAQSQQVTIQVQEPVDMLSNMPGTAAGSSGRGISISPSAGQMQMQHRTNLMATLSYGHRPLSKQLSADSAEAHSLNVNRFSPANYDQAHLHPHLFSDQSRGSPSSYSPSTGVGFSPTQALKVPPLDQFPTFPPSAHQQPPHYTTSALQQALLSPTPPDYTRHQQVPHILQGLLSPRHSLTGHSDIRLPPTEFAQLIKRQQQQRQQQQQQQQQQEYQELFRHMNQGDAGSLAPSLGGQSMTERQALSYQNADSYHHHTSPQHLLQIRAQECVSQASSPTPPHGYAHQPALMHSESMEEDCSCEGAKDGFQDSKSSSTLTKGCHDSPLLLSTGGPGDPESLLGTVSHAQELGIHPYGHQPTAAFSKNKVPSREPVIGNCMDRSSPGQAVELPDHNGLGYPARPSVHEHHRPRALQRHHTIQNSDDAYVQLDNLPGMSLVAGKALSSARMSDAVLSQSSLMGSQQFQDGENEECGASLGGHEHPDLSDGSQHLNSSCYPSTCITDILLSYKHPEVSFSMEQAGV
Sequence of y isoform of PI3K (P48736 whole entry, canonical isoform): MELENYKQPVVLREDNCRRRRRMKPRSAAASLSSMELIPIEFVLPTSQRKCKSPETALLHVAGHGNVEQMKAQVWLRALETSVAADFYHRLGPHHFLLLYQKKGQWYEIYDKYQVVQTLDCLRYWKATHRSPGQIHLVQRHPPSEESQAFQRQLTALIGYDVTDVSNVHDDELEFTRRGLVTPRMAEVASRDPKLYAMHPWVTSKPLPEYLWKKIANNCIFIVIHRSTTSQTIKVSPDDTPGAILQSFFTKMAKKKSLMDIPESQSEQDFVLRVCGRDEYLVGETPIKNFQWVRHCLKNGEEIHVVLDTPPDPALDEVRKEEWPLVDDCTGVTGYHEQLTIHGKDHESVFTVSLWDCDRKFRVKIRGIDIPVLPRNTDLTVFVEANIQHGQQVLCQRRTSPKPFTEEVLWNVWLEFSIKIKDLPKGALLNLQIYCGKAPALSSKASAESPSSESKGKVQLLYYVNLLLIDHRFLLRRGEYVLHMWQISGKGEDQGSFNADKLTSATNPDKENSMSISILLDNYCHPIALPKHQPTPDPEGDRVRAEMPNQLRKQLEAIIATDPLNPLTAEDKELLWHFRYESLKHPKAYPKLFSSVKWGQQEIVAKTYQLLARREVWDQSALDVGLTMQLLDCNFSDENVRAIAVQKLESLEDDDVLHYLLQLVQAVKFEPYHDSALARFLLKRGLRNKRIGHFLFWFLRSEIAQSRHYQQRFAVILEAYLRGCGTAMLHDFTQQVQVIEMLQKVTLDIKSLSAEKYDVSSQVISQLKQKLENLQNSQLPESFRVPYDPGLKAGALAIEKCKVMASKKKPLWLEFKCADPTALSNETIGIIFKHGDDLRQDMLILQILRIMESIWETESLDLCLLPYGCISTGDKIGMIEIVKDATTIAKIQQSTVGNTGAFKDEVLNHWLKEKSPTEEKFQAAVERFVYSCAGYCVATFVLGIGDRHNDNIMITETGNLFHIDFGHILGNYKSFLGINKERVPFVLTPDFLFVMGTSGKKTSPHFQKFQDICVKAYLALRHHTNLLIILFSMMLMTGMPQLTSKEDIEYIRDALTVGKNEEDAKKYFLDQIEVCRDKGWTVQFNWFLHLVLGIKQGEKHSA

SMILES: CC[C@H](Nc1ncnc2[nH]c(O)nc12)c1oc2ccccc2c(=O)c1-c1cccc(F)c1 [Compound M1, (S)-3-(3-fluorophenyl)-2-(1-((8-hydroxy-9H-purin-6-yl)amino)propyl)-4H-chromen-4-one]
- cell growth inhibition in combination (SK-OV-3 cell lines): synergistic results
- activity against salt-inducible kinase 3 (SIK3) (SIK3 (human)): exhibit activity
- SIK-3 inhibitory potency compared among compounds M, M1 and M2 (SIK3 (human); of the three compounds M, M1 and M2): most potent SIK-3 inhibitor
- cell growth inhibition in combination (HuT-78 cell lines): synergistic results
- activity against the y isoform of PI3K (y isoform of PI3K): inactive
- cell growth inhibition in combination (U937 cell lines): synergistic activity
- cell growth inhibition in combination (THP-1 cell lines): synergistic activity
- cell growth inhibition in combination (ZR.75.1 cell lines): synergistic results
